# Assay results taken from article PMC3277400 (Nature Medicine, 2011).
# Target: TcdB (Clostridioides difficile, UniProt P18177)
# Format: biochemical
# TcdB, sequence (P18177 2-2366 limits assumed): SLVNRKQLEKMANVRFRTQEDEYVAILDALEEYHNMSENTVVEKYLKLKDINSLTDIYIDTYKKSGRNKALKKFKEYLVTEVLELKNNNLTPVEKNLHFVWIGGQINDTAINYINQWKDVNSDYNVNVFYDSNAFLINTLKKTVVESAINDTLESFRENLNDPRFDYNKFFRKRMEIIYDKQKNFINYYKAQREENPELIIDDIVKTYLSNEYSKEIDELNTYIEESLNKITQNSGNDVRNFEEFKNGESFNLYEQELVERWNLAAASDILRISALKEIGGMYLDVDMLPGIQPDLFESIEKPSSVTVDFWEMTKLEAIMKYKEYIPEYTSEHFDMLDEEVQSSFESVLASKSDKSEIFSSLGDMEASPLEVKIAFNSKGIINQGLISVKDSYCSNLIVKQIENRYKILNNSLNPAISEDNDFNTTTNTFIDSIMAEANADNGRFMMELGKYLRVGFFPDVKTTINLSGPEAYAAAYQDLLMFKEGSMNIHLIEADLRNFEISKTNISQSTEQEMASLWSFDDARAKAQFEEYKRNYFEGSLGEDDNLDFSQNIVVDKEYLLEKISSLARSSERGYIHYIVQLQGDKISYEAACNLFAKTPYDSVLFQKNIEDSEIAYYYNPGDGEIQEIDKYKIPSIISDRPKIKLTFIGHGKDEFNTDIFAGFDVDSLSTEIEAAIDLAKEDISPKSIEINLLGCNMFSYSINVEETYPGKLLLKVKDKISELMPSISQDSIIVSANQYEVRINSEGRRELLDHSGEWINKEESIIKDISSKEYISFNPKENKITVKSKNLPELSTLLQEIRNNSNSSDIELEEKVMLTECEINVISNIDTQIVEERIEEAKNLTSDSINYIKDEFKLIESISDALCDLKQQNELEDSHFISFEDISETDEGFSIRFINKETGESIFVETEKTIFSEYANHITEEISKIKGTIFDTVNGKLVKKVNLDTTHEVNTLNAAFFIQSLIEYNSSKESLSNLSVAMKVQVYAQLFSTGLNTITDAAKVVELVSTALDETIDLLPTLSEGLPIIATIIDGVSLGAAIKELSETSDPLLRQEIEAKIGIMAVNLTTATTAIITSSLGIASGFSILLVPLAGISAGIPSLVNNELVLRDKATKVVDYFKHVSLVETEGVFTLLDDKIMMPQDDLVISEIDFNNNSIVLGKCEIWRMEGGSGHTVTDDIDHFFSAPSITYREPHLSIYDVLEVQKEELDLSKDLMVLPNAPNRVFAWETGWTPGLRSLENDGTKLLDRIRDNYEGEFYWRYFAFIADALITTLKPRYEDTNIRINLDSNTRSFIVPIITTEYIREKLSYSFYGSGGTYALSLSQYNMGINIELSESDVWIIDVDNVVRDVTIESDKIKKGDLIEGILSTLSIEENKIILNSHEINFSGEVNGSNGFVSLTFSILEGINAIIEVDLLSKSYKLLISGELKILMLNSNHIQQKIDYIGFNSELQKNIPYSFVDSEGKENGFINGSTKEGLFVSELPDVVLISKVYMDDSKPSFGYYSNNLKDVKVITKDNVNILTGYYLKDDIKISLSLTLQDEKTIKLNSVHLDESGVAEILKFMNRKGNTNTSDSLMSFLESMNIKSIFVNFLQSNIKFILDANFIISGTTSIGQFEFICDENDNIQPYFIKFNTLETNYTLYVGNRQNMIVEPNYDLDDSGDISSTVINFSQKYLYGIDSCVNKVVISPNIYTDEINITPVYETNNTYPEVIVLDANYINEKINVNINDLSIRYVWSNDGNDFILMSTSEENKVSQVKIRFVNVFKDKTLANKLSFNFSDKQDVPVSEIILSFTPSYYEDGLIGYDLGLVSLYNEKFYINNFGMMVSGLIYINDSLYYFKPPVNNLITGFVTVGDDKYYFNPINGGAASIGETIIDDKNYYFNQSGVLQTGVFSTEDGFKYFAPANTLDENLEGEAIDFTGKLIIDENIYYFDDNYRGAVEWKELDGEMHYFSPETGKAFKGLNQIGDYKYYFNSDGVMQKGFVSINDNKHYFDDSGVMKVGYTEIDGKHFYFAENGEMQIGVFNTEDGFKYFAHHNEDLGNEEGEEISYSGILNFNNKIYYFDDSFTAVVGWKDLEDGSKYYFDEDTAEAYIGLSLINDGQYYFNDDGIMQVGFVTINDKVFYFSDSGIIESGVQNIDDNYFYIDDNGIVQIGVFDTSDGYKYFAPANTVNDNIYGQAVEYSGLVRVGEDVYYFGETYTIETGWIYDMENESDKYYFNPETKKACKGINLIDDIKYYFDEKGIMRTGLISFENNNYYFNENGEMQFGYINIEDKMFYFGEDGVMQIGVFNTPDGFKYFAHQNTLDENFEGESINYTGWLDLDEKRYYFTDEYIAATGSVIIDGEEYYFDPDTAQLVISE
structure (smiles),measurement,value
O=P(O)(O)O[C@H]1[C@H](OP(=O)(O)O)[C@@H](OP(=O)(O)O)[C@H](OP(=O)(O)O)[C@@H](OP(=O)(O)O)[C@H]1OP(=O)(O)O [InsP6],"InsP6-induced autocleavage, gel and immunoblot",Autocleavage of native TcdB versus E743A mutant with increasing InsP6 concentrations
